Positions of bridges follow the written chain, without caps; N, C: chain ends. Residues, ends and D or L forms follow the SMILES beside them.
Experiments:
[1] = tested on: HeLa cells
Protocol: Since BCR-ABL localizes predominantly in the cytoplasm, it is important to evaluate whether the designed peptides can be internalized into cells.
Human cervical cancer cells (HeLa) were seeded in 175-cm^2 tissue culture flasks (Falcon), in Dulbecco’s Modified Eagle’s Medium (DMEM) supplemented with 10% fetal bovine serum, 100 U/mL penicillin and […] streptomycin, until 80% confluent.
Cytotoxicity of the MTAbl peptides towards HeLa cells was evaluated before the cell internalization assay. The mammalian cell cytotoxicity assay was conducted using a method described earlier. HeLa cells were seeded the day before the assay in 96-well tissue culture-treated plates (2.5 × 10^3 cells/well). […] Peptide solutions were diluted 10-fold with serum-free medium and incubated with cells in triplicates for 2 h. […] Following incubation the peptide solutions were removed and aliquots of 10 μL of 0.02% (w/v) sterile resazurin (resazurin sodium salt, Sigma) were added to each well containing 100 μL of fresh medium. […] The absorbance of the plates was measured on a plate reader at 540 and 620 nm.

[2] = Serum stability assay; conditions: for stability in human serum (in words; comparison to MCoTI-II at 24 h): 100% human serum, 37 °C, one-way ANOVA, three replicates; for remaining at 24 h, 30 μM: male, human, serum
Protocol: All peptides were tested at a final concentration of 30 μM in 100% human serum. […] Reactions were stopped at the stipulated times and the serum proteins in each sample were denatured and precipitated, followed by centrifugation at 17,000 g for 10 min to separate the serum proteins from peptide samples. […] The elution time for each peptide was determined by the PBS control from 0 time point. The percentage of peptide remaining at each time point was calculated using the height of the serum-treated peptide peak from time 0 as 100% recovery.

[3] = 100% human male AB serum (Sigma); conditions: 37 °C, up to 24 h
[4] = target: Abl kinase (Homo sapiens, UniProt P00519); experiment: BacKin assay, inhibition of phosphorylation of abltide displayed on E. coli; format: biochemical; conditions: 32 μM peptide, Abl kinase 0.2 U/mL, 37 °C, 30 min
Chain of Abl kinase (P00519 whole entry): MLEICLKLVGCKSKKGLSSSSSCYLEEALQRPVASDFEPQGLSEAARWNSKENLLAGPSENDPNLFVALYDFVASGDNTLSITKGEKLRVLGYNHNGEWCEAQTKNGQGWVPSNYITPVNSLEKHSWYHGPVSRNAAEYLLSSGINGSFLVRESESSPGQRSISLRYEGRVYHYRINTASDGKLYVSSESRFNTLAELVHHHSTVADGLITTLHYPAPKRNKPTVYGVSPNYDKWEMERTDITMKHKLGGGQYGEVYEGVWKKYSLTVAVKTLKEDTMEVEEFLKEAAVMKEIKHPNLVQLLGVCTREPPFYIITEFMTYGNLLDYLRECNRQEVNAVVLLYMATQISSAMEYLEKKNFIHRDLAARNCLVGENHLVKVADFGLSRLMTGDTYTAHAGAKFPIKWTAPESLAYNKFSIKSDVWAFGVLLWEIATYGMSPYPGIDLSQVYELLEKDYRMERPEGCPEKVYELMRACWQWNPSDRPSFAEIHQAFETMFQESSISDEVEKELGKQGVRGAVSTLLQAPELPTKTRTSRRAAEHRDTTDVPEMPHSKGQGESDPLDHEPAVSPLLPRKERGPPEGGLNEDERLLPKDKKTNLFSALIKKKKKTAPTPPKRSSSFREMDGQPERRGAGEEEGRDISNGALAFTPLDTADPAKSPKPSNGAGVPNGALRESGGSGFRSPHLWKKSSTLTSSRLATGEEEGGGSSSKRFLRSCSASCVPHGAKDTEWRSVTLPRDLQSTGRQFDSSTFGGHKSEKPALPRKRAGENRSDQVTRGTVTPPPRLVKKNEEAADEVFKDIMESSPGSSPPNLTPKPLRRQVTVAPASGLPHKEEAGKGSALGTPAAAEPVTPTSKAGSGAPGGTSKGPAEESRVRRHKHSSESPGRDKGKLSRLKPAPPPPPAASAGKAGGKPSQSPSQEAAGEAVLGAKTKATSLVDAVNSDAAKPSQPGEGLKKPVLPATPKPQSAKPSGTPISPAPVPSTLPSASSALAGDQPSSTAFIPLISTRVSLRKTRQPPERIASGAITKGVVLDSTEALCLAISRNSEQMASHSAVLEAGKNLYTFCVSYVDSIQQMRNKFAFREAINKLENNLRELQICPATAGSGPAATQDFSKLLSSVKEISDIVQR

Row | Molecule | concentration up to which no cytotoxicity towards HeLa cells [1] | stability in human serum (in words; comparison to MCoTI-II at 24 h) [2] | remaining at 24 h, 30 μM [2] | fragment found [3] | percentage of Abl kinase inhibition [4]
1 | CC[C@H](C)[C@@H]1NC(=O)[C@H](C)NC(=O)[C@H](CCC(=O)O)NC(=O)CNC(=O)[C@@H]2CSSC[C@@H]3NC(=O)[C@H](CC(=O)O)NC(=O)[C@H](CO)NC(=O)[C@H](CC(=O)O)NC(=O)[C@H](CCCNC(=N)N)NC(=O)[C@H](CCCNC(=N)N)NC(=O)[C@@H]4CSSC[C@H](NC(=O)[C@H]([C@@H](C)CC)NC(=O)[C@H](CSSC[C@H](NC(=O)[C@H](CCCNC(=N)N)NC(=O)[C@H](CCCNC(=N)N)NC(=O)[C@H](CCCNC(=N)N)NC(=O)[C@H](C)NC(=O)[C@H](Cc5ccccc5)NC(=O)[C@@H]5CCCN5C(=O)[C@H](C)NC(=O)[C@H](C)NC(=O)[C@H](Cc5ccc(O)cc5)NC1=O)C(=O)N1CCC[C@H]1C(=O)N[C@@H](CCCNC(=N)N)C(=O)N[C@@H]([C@@H](C)CC)C(=O)N[C@@H](CC(C)C)C(=O)N[C@@H](CCCNC(=N)N)C(=O)N[C@@H](CCCCN)C(=O)N4)NC(=O)[C@H](C)NC(=O)CNC(=O)[C@@H]1CCCN1C3=O)C(=O)N[C@@H](CCCNC(=N)N)C(=O)NCC(=O)N[C@@H](CC(N)=O)C(=O)NCC(=O)N[C@@H](Cc1ccc(O)cc1)C(=O)N2 [MTAbl15] (cyclo(AAPFARRRCPRILRKCRRDSDCPGACICRGNGYCGEAIY); disulfide 9-26, 16-28, 22-34) | > 64 µM |  |  |  | 
2 | CC[C@H](C)[C@@H]1NC(=O)[C@H](C)NC(=O)[C@H](CCC(=O)O)NC(=O)CNC(=O)[C@@H]2CSSC[C@@H]3NC(=O)[C@H](CC(=O)O)NC(=O)[C@H](CO)NC(=O)[C@H](CC(=O)O)NC(=O)[C@H](CCCNC(=N)N)NC(=O)[C@H](CCCNC(=N)N)NC(=O)[C@@H]4CSSC[C@H](NC(=O)[C@H]([C@@H](C)CC)NC(=O)[C@H](CSSC[C@H](NC(=O)[C@H](CCCNC(=N)N)NC(=O)[C@H](CCCNC(=N)N)NC(=O)[C@H](CCCNC(=N)N)NC(=O)[C@H](C)NC(=O)[C@H](Cc5ccccc5)NC(=O)[C@@H]5CCCN5C(=O)[C@H](C)NC(=O)[C@H](C)NC(=O)[C@H](Cc5ccc(O)cc5)NC1=O)C(=O)N1CCC[C@H]1C(=O)N[C@@H](CCCCN)C(=O)N[C@@H]([C@@H](C)CC)C(=O)N[C@@H](CC(C)C)C(=O)N[C@@H](CCCCN)C(=O)N[C@@H](CCCCN)C(=O)N4)NC(=O)[C@H](C)NC(=O)CNC(=O)[C@@H]1CCCN1C3=O)C(=O)N[C@@H](CCCNC(=N)N)C(=O)NCC(=O)N[C@@H](CC(N)=O)C(=O)NCC(=O)N[C@@H](Cc1ccc(O)cc1)C(=O)N2 [MTAbl07] (cyclo(AAPFARRRCPKILKKCRRDSDCPGACICRGNGYCGEAIY); disulfide 9-26, 16-28, 22-34) | > 64 µM | as stable as MCoTI-II | > 75% |  | 
3 | CPKILKKCRRDSDCPGACICRGNGYCGEAIY*AAPFAR |  |  |  | MTAbl06 (i.e. dephosphorylated MTAbl12) | 
4 | CC[C@H](C)[C@@H]1NC(=O)[C@H](C)NC(=O)[C@H](CCC(=O)O)NC(=O)CNC(=O)[C@@H]2CSSC[C@@H]3NC(=O)[C@H](CC(=O)O)NC(=O)[C@H](CO)NC(=O)[C@H](CC(=O)O)NC(=O)[C@H](CCCNC(=N)N)NC(=O)[C@H](CCCNC(=N)N)NC(=O)[C@@H]4CSSC[C@H](NC(=O)[C@H]([C@@H](C)CC)NC(=O)[C@H](CSSC[C@H](NC(=O)[C@H](CCCNC(=N)N)NC(=O)[C@H](C)NC(=O)[C@H](Cc5ccccc5)NC(=O)[C@@H]5CCCN5C(=O)[C@H](C)NC(=O)[C@H](C)NC(=O)[C@H](Cc5ccc(O)cc5)NC1=O)C(=O)N1CCC[C@H]1C(=O)N[C@@H](CCCCN)C(=O)N[C@@H]([C@@H](C)CC)C(=O)N[C@@H](CC(C)C)C(=O)N[C@@H](CCCCN)C(=O)N[C@@H](CCCCN)C(=O)N4)NC(=O)[C@H](C)NC(=O)CNC(=O)[C@@H]1CCCN1C3=O)C(=O)N[C@@H](CCCNC(=N)N)C(=O)NCC(=O)N[C@@H](CC(N)=O)C(=O)NCC(=O)N[C@@H](Cc1ccc(O)cc1)C(=O)N2 [MTAbl06] (cyclo(AAPFARCPKILKKCRRDSDCPGACICRGNGYCGEAIY); disulfide 7-24, 14-26, 20-32) | > 64 µM |  | > 75% |  | ~ 90%
5 | CC[C@H](C)[C@@H]1NC(=O)[C@H](C)NC(=O)[C@H](CCC(=O)O)NC(=O)[C@@H]2CSSC[C@@H]3NC(=O)[C@H](C)NC(=O)CNC(=O)[C@@H]4CCCN4C(=O)[C@@H]4CSSC[C@H](NC(=O)[C@H](Cc5ccc(O)cc5)NC(=O)CNC(=O)[C@H](CC(N)=O)NC(=O)CNC(=O)[C@H](CCCNC(=N)N)NC(=O)[C@H](CSSC[C@H](NC(=O)[C@H](CCCCN)NC(=O)[C@@H]5CCCN5C(=O)[C@H](C)NC(=O)[C@H](C)NC(=O)[C@H](Cc5ccc(O)cc5)NC1=O)C(=O)N[C@@H](CCCNC(=N)N)C(=O)N[C@@H](CCCNC(=N)N)C(=O)N[C@@H](CC(=O)O)C(=O)N[C@@H](CO)C(=O)N[C@@H](CC(=O)O)C(=O)N4)NC(=O)[C@H]([C@@H](C)CC)NC3=O)C(=O)NCC(=O)N[C@@H](CO)C(=O)NCC(=O)N[C@@H](CO)C(=O)N[C@@H](CC(=O)O)C(=O)NCC(=O)NCC(=O)N[C@@H](C(C)C)C(=O)N2 [MTAbl09] (cyclo(AAPKCRRDSDCPGACICRGNGYCGSGSDGGVCEAIY); disulfide 5-17, 11-23, 15-32) | > 64 µM | statistically more stable than MCoTI-II | > 75% |  | 
6 | CC[C@H](C)[C@@H]1NC(=O)[C@H](C)NC(=O)[C@H](CCC(=O)O)NC(=O)CNC(=O)[C@@H]2CSSC[C@@H]3NC(=O)[C@H](CC(=O)O)NC(=O)[C@H](CO)NC(=O)[C@H](CC(=O)O)NC(=O)[C@H](CCCNC(=N)N)NC(=O)[C@H](CCCNC(=N)N)NC(=O)[C@@H]4CSSC[C@H](NC(=O)[C@H]([C@@H](C)CC)NC(=O)[C@H](CSSC[C@H](NC(=O)[C@H](CCCNC(=N)N)NC(=O)[C@H](C)NC(=O)[C@H](Cc5ccccc5)NC(=O)[C@@H]5CCCN5C(=O)[C@H](C)NC(=O)[C@H](C)NC(=O)[C@H](Cc5ccc(O)cc5)NC1=O)C(=O)N[C@@H](CCC(=O)O)C(=O)N[C@@H](C)C(=O)N[C@@H]([C@@H](C)CC)C(=O)N[C@@H](Cc1ccc(O)cc1)C(=O)N[C@@H](C)C(=O)N[C@@H](C)C(=O)N1CCC[C@H]1C(=O)N[C@@H](CCCCN)C(=O)N4)NC(=O)[C@H](C)NC(=O)CNC(=O)[C@@H]1CCCN1C3=O)C(=O)N[C@@H](CCCNC(=N)N)C(=O)NCC(=O)N[C@@H](CC(N)=O)C(=O)NCC(=O)N[C@@H](Cc1ccc(O)cc1)C(=O)N2 [MTAbl13] (cyclo(AAPFARCEAIYAAPKCRRDSDCPGACICRGNGYCGEAIY); disulfide 7-26, 16-28, 22-34) | > 64 µM | statistically more stable than MCoTI-II | > 75% |  | 

— PMC4532999 (Scientific Reports, 2015)
